Test results reported in article PMC7180572, “5-Alkylamino-N-phenylpyrazine-2-carboxamides: Design, Preparation, and Antimycobacterial Evaluation” (Molecules, 2020).
≈ marks a conversion by molar mass, not a printed value. Where two headings read alike, the source gives them in different places.

Experiments:
[1] = system: Mycobacterium smegmatis DSM 43465 (ATCC 607); assay: Microdilution broth, modified Microplate Alamar Blue Assay, whole cell growth inhibition; assay type: cell-based; conditions: Mycolicibacterium smegmatis, read-out: MIC Mycobacterium smegmatis
[2] = system: Mycobacterium aurum DSM 43999 (ATCC 23366); assay: as above; assay type: cell-based; conditions: Mycolicibacterium aurum, read-out: MIC Mycobacterium aurum
[3] = system: Serratia marcescens; assay: Antibacterial microdilution broth method (EUCAST); assay type: cell-based; conditions: 48 h, standards, read-out: MIC against Serratia marcescens
[4] = system: Mycobacterium tuberculosis H37Ra ITM-M006710 (ATCC 9431); assay: Microdilution broth, modified Microplate Alamar Blue Assay, whole cell growth inhibition; assay type: cell-based; conditions: Mycobacterium tuberculosis, read-out: MIC Mtb H37Ra
[5] = system: HepG2 cells; assay: HepG2 cytotoxicity, CellTiter 96 (MTS) assay; assay type: cell-based, human; conditions: for IC50: Homo sapiens, read-out: HepG2 IC50; for SI, selectivity index: IC50 (HepG2)/MIC against Mtb H37Ra (in µM)
[6] = assay type: physicochemical
Description: As a complementary test, final compounds were tested for in vitro activity against selected fungal and bacterial pathogens of clinical importance. The microdilution broth method was performed according to The European Committee on Antimicrobial Susceptibility Testing (EUCAST) instructions with slight modifications. The minimum inhibitory concentration was expressed in µM. Not all compounds were evaluated due to the fact of a problem with solubility which occurred for 18 samples. […] See Supplementary Materials for the list of tested strains, methodology, and full results.

[7] = system: M. kansasii CNCTC My 235/80 (ATCC 12478); assay: 96 well plate microdilution broth method with Alamar Blue; assay type: cell-based; conditions: Mycobacterium kansasii
[8] = system: M. avium ssp. avium CNCTC My 80/72 (ATCC 15769); assay: as above; assay type: cell-based; conditions: Mycobacterium avium
[9] = system: Pseudomonas aeruginosa ATCC 27853, CCM 3955; assay: Antibacterial microdilution broth method (EUCAST); assay type: cell-based; conditions: read-out: MIC PA
[10] = system: Candida tropicalis ATCC 750, CCM 8264; assay: Antifungal microdilution broth method (EUCAST); assay type: cell-based; conditions: read-out: MIC CT
[11] = system: Trichophyton interdigitale ATCC 9533, CCM 8377; assay: Antifungal microdilution broth method (EUCAST); assay type: cell-based; conditions: read-out: MIC TI
[12] = system: Candida parapsilosis ATCC 22019, CCM 8260; assay: Antifungal microdilution broth method (EUCAST); assay type: cell-based; conditions: Lodderomyces parapsilosis
[13] = system: Candida albicans ATCC 24433, CCM 8320; assay: Antifungal microdilution broth method (EUCAST); assay type: cell-based
[14] = system: Absidia corymbifera CCM 8077 (Lichtheimia corymbifera); assay: Antifungal microdilution broth method (EUCAST); assay type: cell-based; conditions: read-out: MIC AC
[15] = system: Acinetobacter baumanii ATCC 19606, DSM 30007; assay: Antibacterial microdilution broth method (EUCAST); assay type: cell-based; conditions: Acinetobacter baumannii
[16] = system: Candida krusei ATCC 6258, CCM 8271; assay: Antifungal microdilution broth method (EUCAST); assay type: cell-based; conditions: Pichia kudriavzevii
[17] = system: Enterococcus faecalis ATCC 29212, CCM 4224; assay: Antibacterial microdilution broth method (EUCAST); assay type: cell-based; conditions: read-out: MIC EF
[18] = system: Aspergillus fumigatus ATCC 204305; assay: Antifungal microdilution broth method (EUCAST); assay type: cell-based; conditions: read-out: MIC AF
[19] = system: Klebsiella pneumoniae ATCC 10031, CCM 4415; assay: Antibacterial microdilution broth method (EUCAST)
[20] = system: Aspergillus flavus CCM 8363; assay: Antifungal microdilution broth method (EUCAST); assay type: cell-based; conditions: read-out: MIC AFla
[21] = system: Staphylococcus aureus methicillin resistant ATCC 43300, CCM 4750; assay: microbe, parasite or virus in culture; assay type: cell-based; conditions: ATCC 43300 / CCM 4750 / MRSA, read-out: MIC MRSA
[22] = system: Staphylococcus epidermidis ATCC 12228, CCM 4418; assay: Antibacterial microdilution broth method (EUCAST); assay type: cell-based; conditions: read-out: MIC SE
[23] = system: Escherichia coli ATCC 25922, CCM 3954; assay: Antibacterial microdilution broth method (EUCAST); assay type: cell-based; conditions: read-out: MIC EC
[24] = system: Staphylococcus aureus spp.aureus ATCC 29213, CCM 4223; assay: Antibacterial microdilution broth method (EUCAST); assay type: cell-based; conditions: read-out: MIC SA
[25] = in vitro, Middlebrook 7H9 broth, resazurin
[26] = ATCC12478, pH 6.6, read-out: MIC Mycobacterium kansasii
[27] = ATCC15769, pH 6.6, read-out: MIC Mycobacterium avium

`O=C(O)c1cn(C2CC2)c2cc(N3CCNCC3)c(F)cc2c1=O` [CPX, ciprofloxacin, reference compound] showed an MIC [1, 25] of 0.0625 to 0.125 µg/mL (≈ 0.189 to 0.377 µM), an MIC [2, 25] of 0.0156 to 0.0313 µg/mL (≈ 0.0471 to 0.0945 µM) and an MIC [3] of 0.256 µg/mL (≈ 0.773 µM). It also gave an MIC [4, 25] of 0.125 to 0.25 µg/mL.
With `CCCCCCCCNc1cnc(C(=O)Nc2ccc(O)cc2)cn1` [Compound 3f, N-(4-hydroxyphenyl)-5-(octylamino)pyrazine-2-carboxamide] the IC50 ([5]; HepG2, 24 h incubation, > means higher concentration not reproducible due to precipitation) was 60.2 µM, the “SI, selectivity index” value [5] was 6.6 and the MIC [1, 25] was at least 250 µg/mL. For the same compound, the melting point was 142 to 143 °C, the “Solubility problem in antibacterial/antifungal testing” value [6] was “did not dissolve in DMSO” and the MIC ([7]; ATCC12478, Middlebrook 7H9 broth pH 6.6, read-out: MIC Mycobacterium kansasii) was 6.25 µg/mL (≈ 18.3 µM). The MIC [2, 25] was at least 250 µg/mL, the MIC ([8]; ATCC15769, Middlebrook 7H9 broth pH 6.6, read-out: MIC Mycobacterium avium) was over 100 µg/mL and the MIC [4, 25] was 3.13 µg/mL.
In the case of `CCCCCCNc1cnc(C(=O)Nc2ccc(C)cc2)cn1` [Compound 4d, 5-(Hexylamino)-N-(p-tolyl)pyrazine-2-carboxamide], the IC50 ([5]; HepG2, 24 h) is reported as over 50 µM, the “SI, selectivity index” value [5] is reported as over 10.01 and the MIC [1] is reported as at least 500 µg/mL. For the same compound, the melting point was 163 to 164 °C, the MIC ([9]; 72 h) was over 500 µM and the MIC ([9]; 120 h) was over 500 µM. For the same compound, the MIC ([10]; 24 h) was over 125 µM, the MIC ([10]; 48 h) was over 125 µM and the MIC ([11]; 72 h) was over 125 µM. For the same compound, the MIC ([11]; 120 h) was over 125 µM, the MIC ([12]; 24 h, read-out: MIC CP) was 125 µM (≈ 39.1 µg/mL) and the MIC ([12]; 48 h, read-out: MIC CP) was 125 µM (≈ 39.1 µg/mL). For the same compound, the MIC ([12]; read-out: MIC CP (Candida parapsilosis)) was 125 µM (≈ 39.1 µg/mL), the MIC ([13]; 24 h, read-out: MIC CA) was over 125 µM and the MIC ([13]; 48 h, read-out: MIC CA) was over 125 µM. The MIC ([13]; read-out: MIC CA (Candida albicans)) was over 125 µM, the MIC ([14]; CCM8077, 24 h) was over 125 µM and the MIC ([14]; CCM8077, 48 h) was over 125 µM. For the same compound, the MIC ([15]; 24h) was over 500 µM, the MIC ([15]; 48h) was over 500 µM and the MIC ([16]; 24 h, read-out: MIC CK) was 125 µM (≈ 39.1 µg/mL). It also gave an MIC ([16]; 48 h, read-out: MIC CK) of 125 µM (≈ 39.1 µg/mL), an MIC ([16]; read-out: MIC CK (Candida krusei)) of 125 µM (≈ 39.1 µg/mL) and an MIC [7, 26] of 12.5 µg/mL (≈ 40 µM). The MIC ([17]; 24 h) was over 500 µM, the MIC ([17]; 48 h) was over 500 µM and the MIC [2] was at least 500 µg/mL. The MIC [8, 27] was over 100 µg/mL, the MIC ([18]; ATCC204305, 24 h) was over 125 µM and the MIC ([18]; ATCC204305, 48 h) was over 125 µM. The “MIC KP” value ([19]; 24h) was over 500 µM, the “MIC KP” value ([19]; 48h) was over 500 µM and the MIC ([20]; CCM8363, 24 h) was over 125 µM. For the same compound, the MIC ([20]; CCM8363, 48 h) was over 125 µM, the MIC ([21]; 24 h) was over 500 µM and the MIC ([21]; 48 h) was over 500 µM. The MIC ([4]; MIC converted to µM) was 4.99 µM, the MIC [4, 25] was 1.56 µg/mL and the MIC ([22]; 24 h) was over 500 µM. The MIC ([22]; 48 h) was over 500 µM, the MIC ([23]; 24 h) was over 500 µM and the MIC ([23]; 48 h) was over 500 µM. It also gave an MIC ([24]; 24 h) of over 500 µM and an MIC ([24]; 48 h) of over 500 µM.
In the case of `CCCCCCCNc1cnc(C(=O)Nc2ccc(C)cc2)cn1` [Compound 4e, 5-(Heptylamino)-N-(p-tolyl)pyrazine-2-carboxamide], the IC50 ([5]; HepG2, 24 h) is reported as over 50 µM, the “SI, selectivity index” value [5] is reported as over 20.91 and the MIC [1] is reported as at least 500 µg/mL. It also gave a melting point of 157.8 to 158.9 °C, an MIC ([9]; 72 h) of over 500 µM and an MIC ([9]; 120 h) of over 500 µM. For the same compound, the MIC ([10]; 24 h) was over 125 µM, the MIC ([10]; 48 h) was over 125 µM and the MIC ([11]; 72 h) was over 125 µM. It also gave an MIC ([11]; 120 h) of over 125 µM, an MIC ([12]; 24 h, read-out: MIC CP) of over 125 µM and an MIC ([12]; 48 h, read-out: MIC CP) of over 125 µM. The MIC ([13]; 24 h, read-out: MIC CA) was over 125 µM, the MIC ([13]; 48 h, read-out: MIC CA) was over 125 µM and the MIC ([14]; CCM8077, 24 h) was over 125 µM. For the same compound, the MIC ([14]; CCM8077, 48 h) was over 125 µM, the MIC ([15]; 24h) was over 500 µM and the MIC ([15]; 48h) was over 500 µM. It also gave an MIC ([16]; 24 h, read-out: MIC CK) of over 125 µM, an MIC ([16]; 48 h, read-out: MIC CK) of over 125 µM and an MIC [7, 26] of 12.5 µg/mL (≈ 38.3 µM). The MIC ([17]; 24 h) was over 500 µM, the MIC ([17]; 48 h) was over 500 µM and the MIC [2] was at least 500 µg/mL. The MIC [8, 27] was over 100 µg/mL, the MIC ([18]; ATCC204305, 24 h) was over 125 µM and the MIC ([18]; ATCC204305, 48 h) was over 125 µM. The “MIC KP” value ([19]; 24h) was over 500 µM, the “MIC KP” value ([19]; 48h) was over 500 µM and the MIC ([20]; CCM8363, 24 h) was over 125 µM. For the same compound, the MIC ([20]; CCM8363, 48 h) was over 125 µM, the MIC ([21]; 24 h) was over 500 µM and the MIC ([21]; 48 h) was over 500 µM. For the same compound, the MIC ([4]; MIC converted to µM) was 2.39 µM, the MIC [4, 25] was 0.78 µg/mL and the MIC ([22]; 24 h) was over 500 µM. It also gave an MIC ([22]; 48 h) of over 500 µM, an MIC ([23]; 24 h) of over 500 µM and an MIC ([23]; 48 h) of over 500 µM. For the same compound, the MIC ([24]; 24 h) was over 500 µM and the MIC ([24]; 48 h) was over 500 µM.
